According to patent US9708314B2, “Heterocyclic amide compound” (NISSAN CHEMICAL INDUSTRIES, LTD., priority 2013, dated 2017):

Experiments:
Format in all cases: in vivo
[1] = test system: Echinochloa oryzacola Vasing.; assay: Test Example 1: herbicidal activity, application before weed generation in submerged conditions; details: Application herbicide amount 320 g/ha; Seventeenth Table
How it was run: (§1)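 Pre-emergence application to water surface of submerged pots (4 cm depth, alluvial soil) on sowing day, with 2.5-leaf rice transplanted; emulsion diluted to g/ha rates. Grown in greenhouse at 25–30 °C; 0–5 herbicidal/crop-effect score after three weeks.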

Monochoria vaginalis = assay: as above; details: Application herbicide amount 320 g/ha; Seventeenth Table
How it was run: as §1

Scirpus juncoides = assay: as above; details: Application herbicide amount 320 g/ha; Seventeenth Table
How it was run: as §1

[2] = test system: transplanted Oryza sativa; assay: Test Example 1: effect on crop, application before weed generation in submerged conditions; details: Application herbicide amount 320 g/ha; Seventeenth Table
How it was run: as §1

[3] = test system: Echinochloa oryzacola Vasing.; assay: Test Example 2: herbicidal activity, application during weed generation in submerged conditions; details: Eighteenth Table; application herbicide amount 320 g/ha
How it was run: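 Mixed sowings in flooded alluvial soil (4 cm water), greenhouse 25-30 °C; emulsifiable concentrate diluted in water applied to the water surface at the 1-2 leaf stage, rate in g/ha. Effect scored three weeks later on a 0-5 scale (5 = ≥90% herbicidal ratio, 0 = ≤5%).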

Avena fatua = assay: Test Example 4: herbicidal effect by application to foliage (diluvial soil, plastic box); details: for I: herbicidal effect on Avena fatua: application to foliage, application herbicide amount 320 g/ha; for I (Avena fatua) herbicidal effect grade: Application herbicide amount 320 g/ha, foliage application
How it was run: (§2)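 Plants were grown in sterilized diluvial soil in a greenhouse at 25-30° C for 14 days, then sprayed on stems and leaves with water-diluted emulsion formulation at set rates in g/ha. Weed control and crop injury were scored 3 weeks after treatment on a 0-5 herbicidal-ratio scale, from 0 (≤5%) to 5 (≥90%).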

[4] = test system: Echinochloa crus-galli var. crus-galli; assay: as above; details: for H: herbicidal effect on Echinochloa crus-galli var. crus-galli: application to foliage, application herbicide amount 320 g/ha; for H (Echinochloa crus-galli var. crus-galli) herbicidal effect grade: Application herbicide amount 320 g/ha, foliage application
How it was run: as §2

Galium spurium = assay: as above; details: for Q: herbicidal effect on Galium spurium: application to foliage, application herbicide amount 320 g/ha; for Q (Galium spurium) herbicidal effect grade: Application herbicide amount 320 g/ha, foliage application
How it was run: as §2

Lolium multiflorum Lam. = assay: as above; details: for K: herbicidal effect on Lolium multiflorum Lam.: application to foliage, application herbicide amount 320 g/ha; for K (Lolium multiflorum Lam.) herbicidal effect grade: Application herbicide amount 320 g/ha, foliage application
How it was run: as §2

SMILES | A: Echinochloa oryzicola Vasing. (herbicidal effect grade) [1] | C: Monochoria vaginalis (herbicidal effect grade) (Monochoria vaginalis) | B: Scirpus juncoides (herbicidal effect grade) (Scirpus juncoides) | a: transplanted Oryza sativa (effect on crop grade) [2] | A (Echinochloa oryzicola Vasing.) herbicidal ratio grade [3] | I: herbicidal effect on Avena fatua (Avena fatua) | H: herbicidal effect on Echinochloa crus-galli var. crus-galli [4] | Q: herbicidal effect on Galium spurium (Galium spurium) | K: herbicidal effect on Lolium multiflorum Lam. (Lolium multiflorum Lam.) | I (Avena fatua) herbicidal effect grade (Avena fatua) | H (Echinochloa crus-galli var. crus-galli) herbicidal effect grade [4] | Q (Galium spurium) herbicidal effect grade (Galium spurium) | K (Lolium multiflorum Lam.) herbicidal effect grade (Lolium multiflorum Lam.)
COCCOCc1nnc2c(C(=O)Nc3nnnn3C)ccc(C(F)(F)F)n12 [2-014] | 5 (Herbicidal ratio of 90% or more (almost completely withered)) | 5 (Herbicidal ratio of 90% or more (almost completely withered)) | 5 (Herbicidal ratio of 90% or more (almost completely withered)) | 4 (Herbicidal ratio of 70% or more and less than 90%) | 5 (Herbicidal ratio of 90% or more (almost completely withered)) | 4 (Herbicidal ratio of 70% or more and less than 90%) | 5 (Herbicidal ratio of 90% or more (almost completely withered)) | 4 (Herbicidal ratio of 70% or more and less than 90%) | 4 (Herbicidal ratio of 70% or more and less than 90%) |  |  |  | 
COc1ccc(-c2nnc3c(C(=O)Nc4nnnn4C)ccc(C(F)(F)F)n23)cc1 [2-011] | 5 (Herbicidal ratio of 90% or more (almost completely withered)) | 5 (Herbicidal ratio of 90% or more (almost completely withered)) | 5 (Herbicidal ratio of 90% or more (almost completely withered)) | 2 (Herbicidal ratio of 20% or more and less than 40%) | 4 (Herbicidal ratio of 70% or more and less than 90%) | 3 (Herbicidal ratio of 40% or more and less than 70%) | 5 (Herbicidal ratio of 90% or more (almost completely withered)) | 3 (Herbicidal ratio of 40% or more and less than 70%) | 2 (Herbicidal ratio of 20% or more and less than 40%) |  |  |  | 
CCSc1nnc2c(C(=O)Nc3nnnn3C)ccc(C(F)(F)F)n12 [2-024] | 5 (Herbicidal ratio of 90% or more (almost completely withered)) | 5 (Herbicidal ratio of 90% or more (almost completely withered)) | 5 (Herbicidal ratio of 90% or more (almost completely withered)) | 5 (Herbicidal ratio of 90% or more (almost completely withered)) | 5 (Herbicidal ratio of 90% or more (almost completely withered)) | 4 (Herbicidal ratio of 70% or more and less than 90%) | 5 (Herbicidal ratio of 90% or more (almost completely withered)) | 4 (Herbicidal ratio of 70% or more and less than 90%) | 4 (Herbicidal ratio of 70% or more and less than 90%) |  |  |  | 
Cc1cc(-c2nnc3c(C(=O)Nc4nnnn4C)ccc(C(F)(F)F)n23)no1 [2-017] | 5 (Herbicidal ratio of 90% or more (almost completely withered)) | 4 (Herbicidal ratio of 70% or more and less than 90%) | 3 (Herbicidal ratio of 40% or more and less than 70%) | 4 (Herbicidal ratio of 70% or more and less than 90%) | 5 (Herbicidal ratio of 90% or more (almost completely withered)) | 4 (Herbicidal ratio of 70% or more and less than 90%) | 5 (Herbicidal ratio of 90% or more (almost completely withered)) | 1 (Herbicidal ratio of 5% or more and less than 20%) | 2 (Herbicidal ratio of 20% or more and less than 40%) |  |  |  | 
Cc1nnc(NC(=O)c2ccc(C(F)(F)F)n3c(N(C)C(C)C)nnc23)o1 [1-132] | 5 (Herbicidal ratio of 90% or more (almost completely withered)) | 4 (Herbicidal ratio of 70% or more and less than 90%) | 4 (Herbicidal ratio of 70% or more and less than 90%) | 2 (Herbicidal ratio of 20% or more and less than 40%) | 4 (Herbicidal ratio of 70% or more and less than 90%) |  |  |  |  | 1 (Herbicidal ratio of 5% or more and less than 20%) | 5 (Herbicidal ratio of 90% or more (almost completely withered)) | 2 (Herbicidal ratio of 20% or more and less than 40%) | 1 (Herbicidal ratio of 5% or more and less than 20%)
Cc1nnc(NC(=O)c2ccc(C(F)(F)F)n3c(SCc4ccccc4)nnc23)o1 [1-113] | 4 (Herbicidal ratio of 70% or more and less than 90%) | 2 (Herbicidal ratio of 20% or more and less than 40%) | 3 (Herbicidal ratio of 40% or more and less than 70%) | 0 (Herbicidal ratio of 5% or less (almost no effect)) | 2 (Herbicidal ratio of 20% or more and less than 40%) |  |  |  |  | 0 (Herbicidal ratio of 5% or less (almost no effect)) | 2 (Herbicidal ratio of 20% or more and less than 40%) | 0 (Herbicidal ratio of 5% or less (almost no effect)) | 0 (Herbicidal ratio of 5% or less (almost no effect))
CCN(C)c1nnc2c(C(=O)Nc3nnc(C)o3)ccc(C(F)(F)F)n12 [1-134] | 3 (Herbicidal ratio of 40% or more and less than 70%) | 2 (Herbicidal ratio of 20% or more and less than 40%) | 3 (Herbicidal ratio of 40% or more and less than 70%) | 0 (Herbicidal ratio of 5% or less (almost no effect)) | 1 (Herbicidal ratio of 5% or more and less than 20%) |  |  |  |  | 0 (Herbicidal ratio of 5% or less (almost no effect)) | 5 (Herbicidal ratio of 90% or more (almost completely withered)) | 3 (Herbicidal ratio of 40% or more and less than 70%) | 1 (Herbicidal ratio of 5% or more and less than 20%)
Cn1nnnc1NC(=O)c1ccc(C(F)(F)F)n2c(COc3ccccc3)nnc12 [2-020] | 3 (Herbicidal ratio of 40% or more and less than 70%) | 2 (Herbicidal ratio of 20% or more and less than 40%) | 2 (Herbicidal ratio of 20% or more and less than 40%) | 1 (Herbicidal ratio of 5% or more and less than 20%) | 2 (Herbicidal ratio of 20% or more and less than 40%) | 1 (Herbicidal ratio of 5% or more and less than 20%) | 3 (Herbicidal ratio of 40% or more and less than 70%) | 2 (Herbicidal ratio of 20% or more and less than 40%) | 1 (Herbicidal ratio of 5% or more and less than 20%) |  |  |  | 
Cn1nnnc1NC(=O)c1ccc(C(F)(F)F)n2c(C3CCCC3)nnc12 [2-021] | 5 (Herbicidal ratio of 90% or more (almost completely withered)) | 5 (Herbicidal ratio of 90% or more (almost completely withered)) | 5 (Herbicidal ratio of 90% or more (almost completely withered)) | 4 (Herbicidal ratio of 70% or more and less than 90%) | 5 (Herbicidal ratio of 90% or more (almost completely withered)) | 3 (Herbicidal ratio of 40% or more and less than 70%) | 5 (Herbicidal ratio of 90% or more (almost completely withered)) | 4 (Herbicidal ratio of 70% or more and less than 90%) | 3 (Herbicidal ratio of 40% or more and less than 70%) |  |  |  | 
